This test deals with T1, Thiamine-binding periplasmic protein (Escherichia coli (strain K12), UniProt P31550).
T1 sequence (P31550 whole entry): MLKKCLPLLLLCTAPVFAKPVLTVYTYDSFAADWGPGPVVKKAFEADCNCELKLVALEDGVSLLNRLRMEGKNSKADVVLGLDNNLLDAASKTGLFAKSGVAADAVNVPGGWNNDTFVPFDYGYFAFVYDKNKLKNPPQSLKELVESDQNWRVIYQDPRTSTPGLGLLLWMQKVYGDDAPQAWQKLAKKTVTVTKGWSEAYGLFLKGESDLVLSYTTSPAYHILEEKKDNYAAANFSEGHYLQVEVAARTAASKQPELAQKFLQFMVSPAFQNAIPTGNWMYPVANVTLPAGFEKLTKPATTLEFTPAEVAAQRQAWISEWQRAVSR
Put plainly: Titration Assay. As to the method:
the kd for ThOH, ThMP and ThDP were determined using titration experiments in which the change in the intrinsic protein fluorescence was monitored as a function of ligand concentration.

In the case of `Cc1ncc(C[n+]2csc(CCO[P@](=O)(O)OP(=O)(O)O)c2C)c(N)n1` [ThDP], the Kd came out at 7.4 nM.
The result for `Cc1ncc(C[n+]2csc(CCO)c2C)c(N)n1` [Vitamin B 1] reads 3.8 nM.

(Values after BindingDB's records for doi:10.1021/bi7018282 (Cornell University, 2008).)
